# US10689376B2, “Substituted-3H-imidazo [4,5-c] pyridine and 1H-pyrrolo[2,3-c]pyridine series of novel ectonucleotide pyrophosphatase/phosphodiesterase-1 (ENPP1) and stimulator for interferon genes (STING) modulators as cancer immunotherapeutics” (Stingray Therapeutics, Inc., priority 2017, dated 2020)
# Experiments:
# Saos-2 Cells = test: ENPP1 Mineralization Assay; type: cell-based; parameters: key to ENPP1 Mineral assay (50% inhibition at 50 μM): +: active at 50 μM concentration; NA: Not Active; details: for ENPP1 Mineral assay (50% inhibition at 50 μM): Alizarin Red; for inhibiting ENPP1 ability to produce mineralized nodules (FIG. 4): result in words
# Procedure: 4. ENPP1 Mineralization Assay
# Saos-2 Cells (ATCC CAT # HTB-85)
# 24-well Tissue Culture Plate
# Ascorbic Acid, 5 mg/mL (100×)
# β-Glycerophosphate, 1M (100×)
# Phosphate Buffered Saline
# Alizarin Red, 40 mM pH 4.2
# Dye Extraction Reagent, 10% Methanol+10% Acetic Acid
# Saos-2 cells were plated at a density of 1.5×10^6 cells/well and allowed to grow to 100% confluency over the following 1-2 days. Once completely confluent, the media was replaced with fresh media supplemented with 1× ascorbic acid, 1× β-glycerophosphate, and varying concentrations of ENPP1 inhibitor (if applicable). The addition of the mineralization components was considered Day 1, On Day 3, the media was gently aspirated with no wash followed by the addition of fresh media, mineralization components, and ENPP1 inhibitor (if applicable). On day 5, the media was gently aspirated and the cells were washed twice with PBS. The cells were then fixed with ice cold 70% ethanol for 1 hour at 4° C. Cells were washed once with PBS and stained with Alizarin Red for 30 minutes at room temperature with gentle rotation. Stained cells were washed three times with water for 10 minutes at room temperature with gentle rotation. After imaging cells, dye extraction reagent was added to each well and incubated for 30 minutes at room temperature. Alizarin red was quantified by measuring absorbance at a wavelength of 405 nm using the Envision.
# [1] = target: T1, Recombinant Human ENPP-1 Protein (Homo sapiens (Human), UniProt P22413); test: ENPP1 Inhibition Assay; type: biochemical; details: for IC50: substrate thymidine 5′-monophosphate p-nitrophenol ester, absorbance at 405 nm; for inhibiting the activity of ENPP1 (FIG. 1): result in words
# Procedure: 1. ENPP1 Inhibition Assay
# Materials: • Assay Buffer: 1 mM CaCl2, 0.2 mM ZnCl2, 50 mM Tris, pH 9.0 • Substrate: 8 mM Thymidine 5′-monophosphate p-nitrophenol ester sodium salt (Sigma Cat # T4510) • Enzyme: 5 ng/μL Recombinant Human ENPP-1 Protein (R&D Cat #6136-EN-010) DMSO • 96-well clear assay plates
# (§1) An eight point serial dilution of drugs was prepared in 10× in assay buffer with the final assay concentrations starting at 10 μM, 3 μM, 1 μM, 0.3 μM . . . 0 μM. A dilution of DMSO was included as a control. The assay plate was set up as follows with each well in duplicate: 81 μL assay buffer+10 μL ENPP1 inhibitor or DMSO+5 μL Substrate+4 μL Enzyme. Both the enzyme and substrate were added to opposite sides of the well to ensure that there was no interaction until all wells had both components. The plate was then centrifuged gently for 10 seconds, followed by an incubation at 37° C. for 45 minutes. The reaction was quantified by measuring absorbance at 405 nm using the Envision.
# (§2) IC50 values are determined using GraphPad Prism 5 software. The data were entered as an X-Y plot into the software as percent inhibition for each concentration of the drug. The concentration values of the drug were log transformed and the nonlinear regression was carried out using the “sigmoidal dose-response (variable slope)” option within the GraphPad software to model the data and calculate IC50 values. The IC50 values reported are the concentration of drug at which 50% inhibition was reached.
# [2] = target: T1, Recombinant Human ENPP-1 Protein; test: ENPP1 Thermal Shift Assay; type: binding
# Procedure: 3. ENPP1 Thermal Shift Assay Materials: Recombinant Human ENPP-1 Protein (R&D Cat #6136-EN-010) Assay Buffer (1 mM CaCl2, 0.2 mM ZnCl2, 50 mM Tris, pH 9.0) 5000× SYPRO Orange (ThermoFisher cat # S6651) 384-well PCR Plates Methods: Each drug was prepared as a 10× solution in the assay buffer and SYPRO Orange was diluted to 10× concentration in water. Wells were set up in duplicate in a 384-well PCR plate as follows: 14 μL assay buffer, 2 μL ENPP1 Inhibitor or DMSO, 2 μL (0.5 μg) ENPP1 protein. Each well was mixed and incubated on ice for 5 minutes. Post incubation, 2 μL of SYPRO Orange was mixed into each well and followed by a gentle centrifugation. The protein melt reaction was run using ViiA7 software with temperatures beginning at 25° C. and increasing by 0.05° C./s to the maximum temperature of 99° C.
# [3] = target: Recombinant Human ENPP-2/Autotaxin Protein (Homo sapiens (Human), UniProt Q13822); test: ENPP2 Inhibition Assay; type: biochemical; details: result in words
# Procedure: 2. ENPP2 Inhibition Assay
# Assay Buffer: 10 mM CaCl2, 5 mM MgCl2, 50 mM Tris, 0.02% Brij-35, pH 8.5
# Substrate: 2 mM Bis(p-Nitrophenyl) Phosphate Sodium Salt (Sigma Cat # N3002)
# Enzyme: 0.2 ng/μL Recombinant Human ENPP-2/Autotaxin Protein (R&D Cat #5255-EN)
# 96-well clear assay plates
# as §1, with “duplicate: 15” for “duplicate: 81”, “buffer+10 μL,” for “buffer+10 μL”, “or DMSO+50” for “or DMSO+5”, “μL Substrate+25” for “μL Substrate+4”
# as §2
# T1 sequence (P22413 whole entry): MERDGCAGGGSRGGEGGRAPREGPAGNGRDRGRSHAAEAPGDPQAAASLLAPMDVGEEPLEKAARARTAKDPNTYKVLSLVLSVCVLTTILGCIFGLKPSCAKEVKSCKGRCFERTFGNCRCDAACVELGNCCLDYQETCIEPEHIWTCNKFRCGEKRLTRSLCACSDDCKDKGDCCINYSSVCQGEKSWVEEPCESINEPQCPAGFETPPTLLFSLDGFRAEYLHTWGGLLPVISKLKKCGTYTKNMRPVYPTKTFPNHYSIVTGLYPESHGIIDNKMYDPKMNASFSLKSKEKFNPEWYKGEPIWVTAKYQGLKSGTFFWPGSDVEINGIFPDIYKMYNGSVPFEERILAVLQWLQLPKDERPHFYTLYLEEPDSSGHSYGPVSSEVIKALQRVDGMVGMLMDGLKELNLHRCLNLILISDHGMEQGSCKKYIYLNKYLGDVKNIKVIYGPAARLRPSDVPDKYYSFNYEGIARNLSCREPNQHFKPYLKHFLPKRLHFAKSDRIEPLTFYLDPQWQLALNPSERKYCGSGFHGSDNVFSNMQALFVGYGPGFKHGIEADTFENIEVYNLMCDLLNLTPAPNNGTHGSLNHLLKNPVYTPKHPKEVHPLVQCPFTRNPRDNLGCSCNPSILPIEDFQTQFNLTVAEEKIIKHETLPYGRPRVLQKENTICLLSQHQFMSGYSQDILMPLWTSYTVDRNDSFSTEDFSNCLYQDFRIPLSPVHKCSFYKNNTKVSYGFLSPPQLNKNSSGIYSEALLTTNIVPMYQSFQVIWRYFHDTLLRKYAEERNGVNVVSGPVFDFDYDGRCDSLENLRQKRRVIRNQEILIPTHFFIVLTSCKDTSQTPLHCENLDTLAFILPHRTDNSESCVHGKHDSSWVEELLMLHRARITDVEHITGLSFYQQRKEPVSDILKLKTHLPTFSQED
Compound,IC50 [1],Tm (midpoint of the protein unfolding transition) of ENPP1 in the presence of compound ([2]; Tm of ENPP1 alone 64.2° C.),ENPP1 Mineral assay (50% inhibition at 50 μM) (Saos-2 Cells),inhibiting ENPP1 ability to produce mineralized nodules (FIG. 4) (Saos-2 Cells),inhibiting the activity of ENPP1 (FIG. 1) [1],stability of recombinant ENPP1 protein (FIG. 3) ([2]; result in words),inhibiting the activity of ENPP2 (FIGS. 2A and 2B) [3],selectivity ENPP1 versus ENPP2 [3]
"COc1ccc(NC(=O)CSc2nc3cnc(C(F)(F)F)cc3[nH]2)cc1F [Compound 38, N-(3-fluoro-4-methoxyphenyl)-2-((6-(trifluoromethyl)-1H-imidazo[4,5-c]pyridin-2-yl)thio)acetamide]",487 nM,–,+,–,–,–,–,–
"O=C(CSc1nc2cnc(Cl)cc2[nH]1)Nc1ccc(F)c(O)c1 [Compound 37, 2-((6-chloro-1H-imidazo[4,5-c]pyridin-2-yl)thio)-N-(4-fluoro-3-hydroxyphenyl)acetamide]",170 nM,–,+,–,–,–,–,–
"COc1cc(NC(=O)CSc2nc3cc(Cl)ncc3[nH]2)ccc1O [Compound 22, 2-((6-chloro-3H-imidazo[4,5-c]pyridin-2-yl)thio)-N-(4-hydroxy-3-methoxyphenyl)acetamide]",1160 nM,–,+,–,–,–,–,–
"COc1ccc(NC(=O)CSc2nc3cnc(C(F)(F)F)cc3[nH]2)cc1O [Compound 31, N-(3-hydroxy-4-methoxyphenyl)-2-((6-(trifluoromethyl)-1H-imidazo[4,5-c]pyridin-2-yl)thio)acetamide]",181 nM,–,+,–,–,–,–,–
"O=C(CSc1nc2cnc(C(F)(F)F)cc2[nH]1)Nc1ccc(F)c(O)c1 [Compound 45, N-(4-fluoro-3-hydroxyphenyl)-2-((6-(trifluoromethyl)-1H-imidazo[4,5-c]pyridin-2-yl)thio)acetamide]",651 nM,–,+,–,–,–,–,–

# Now those with a lower IC50 [1], led by results:
IC50 [1],Tm (midpoint of the protein unfolding transition) of ENPP1 in the presence of compound ([2]; Tm of ENPP1 alone 64.2° C.),Compound,ENPP1 Mineral assay (50% inhibition at 50 μM) (Saos-2 Cells),inhibiting ENPP1 ability to produce mineralized nodules (FIG. 4) (Saos-2 Cells),inhibiting the activity of ENPP1 (FIG. 1) [1],stability of recombinant ENPP1 protein (FIG. 3) ([2]; result in words),inhibiting the activity of ENPP2 (FIGS. 2A and 2B) [3],selectivity ENPP1 versus ENPP2 [3]
114 nM,–,"COc1ccc(NC(=O)CSc2nc3cc(C#N)ncc3[nH]2)cc1OC [Compound 68, 2-((6-Cyano-3H-imidazo[4,5-c]pyridin-2-yl)thio)-N-(3,4-dimethoxyphenyl)acetamide]",+,effective in inhibiting ENPP1 ability to produce mineralized nodules,effective in inhibiting the activity of ENPP1,–,–,–
86 nM,67.84 °C,"COc1ccc(NC(=O)CSc2nc3cc(Cl)ncc3[nH]2)cc1O [Compound 21, 2-((6-chloro-3H-imidazo[4,5-c]pyridin-2-yl)thio)-N-(3-hydroxy-4-methoxyphenyl)acetamide]",+,effective in inhibiting ENPP1 ability to produce mineralized nodules,effective in inhibiting the activity of ENPP1,effective in increasing the stability of recombinant ENPP1 protein,ineffective in inhibiting the activity of ENPP2,selective at inhibiting ENPP1 but not ENPP2
79 nM,–,"COc1ccc(NC(=O)CSc2nc3c(C)c(C#N)ncc3[nH]2)cc1O [Compound 78, 2-((6-Cyano-7-methyl-3H-imidazo[4,5-c]pyridin-2-yl)thio)-N-(3-hydroxy-4-methoxyphenyl)acetamide]",+,–,effective in inhibiting the activity of ENPP1,–,ineffective in inhibiting the activity of ENPP2,selective at inhibiting ENPP1 but not ENPP2
